Test results reported in US20240150282A1, “NOVEL CRYSTALLINE COMPOUND OF SIPONIMOD HEMIFUMARATE” (OLON S.P.A., priority 2021, published 2024).

Legend:
[1] = Stability of the crystalline form during isolation and drying; assay type: physicochemical
Source text: According to another of its aspects, subject-matter of the invention is a process for the preparation of the NP01 Form of Siponimod Hemifumarate, comprising carrying out the steps (a) and (b) stated above for the preparation of the NP04 Form.

[2] = Stability assays of the NP04 Form (storage, humidity, shredding, compression); assay type: physicochemical
Protocol: Stability assays of the NP04 Form
Aliquots of the compound obtained from Example 1 were subjected to the following assays: • closed in a sealed bottle for 8 days • at 25° C. with 100% relative humidity for 7 days • at 25° C. with 60% relative humidity for 7 days • at 60° C. with 75% relative humidity for 3 days • shredding treatment • Compression test under 1, 2 and 3 tons

Row | SMILES | stability of the crystalline form [1] | solid form stability (form recovered after treatment) ([2]; 25° C. with 60% relative humidity for 7 days) | solid form stability (form recovered after treatment) ([2]; 25° C. with 100% relative humidity for 7 days) | solid form stability (form recovered after treatment) ([2]; 60° C. with 75% relative humidity for 3 days) | solid form stability (form recovered after treatment) ([2]; closed in a sealed bottle for 8 days) | solid form stability (form recovered after treatment) ([2]; compression test under 1, 2 and 3 tons) | solid form stability (form recovered after treatment) ([2]; shredding treatment)
1 | CCc1cc(/C(C)=N/OCc2ccc(C3CCCCC3)c(C(F)(F)F)c2)ccc1CN1CC(C(=O)O)C1 [NP01 Form, Siponimod Hemifumarate] | unstable and converts to the NP04 Form |  |  |  |  |  | 
2 | CCc1cc(/C(C)=N/OCc2ccc(C3CCCCC3)c(C(F)(F)F)c2)ccc1CN1CC(C(=O)O)C1 [NP04 Form, Siponimod Hemifumarate] |  | stable | stable | stable | stable | stable | stable
